≈ marks a conversion by molar mass, not a printed value.
Columns and labels:
[1] = test system: SARS-CoV-2 (hCoV-19/Egypt/NRC-03/2020); test: Inhibitory concentration 50 (IC50) determination, virus-induced cytopathic effect, crystal violet; assay type: cell-based; details: Severe acute respiratory syndrome coronavirus 2, Vero C1008; Vero-E6 cells infected with hCoV-19/Egypt/NRC-03/2020, 72 h
Experimental: In 96-well tissue culture plates, 2.4 × 10^4 Vero-E6 cells were distributed in each well and incubated overnight at a humidified 37 °C incubator under 5%CO2 condition. The cell monolayers were then washed once with 1 × PBS and subjected to virus adsorption (hCoV-19/Egypt/NRC-03/2020 (Accession Number on GSAID: EPI_ISL_430820)) for 1 h at room temperature (RT). More details were provided in Supplementary Information.
3.4.Inhibitory concentration 50 (IC50) determination
In 96-well tissue culture plates, 2.4×10^4 Vero-E6 cells were distributed in each well and incubated overnight at a humidified 37°C incubator under 5%CO2 condition. The cell monolayers were then washed once with 1x PBS and subjected to virus adsorption (hCoV-19/Egypt/NRC-03/2020 (Accession Number on GSAID: EPI_ISL_430820)) for 1 h at room temperature (RT). The cell monolayers were further overlaid with 100μl of DMEM containing varying concentrations of the test compounds. Following incubation at 37°C in 5% CO2 incubator for 72 h, the cells were fixed with 100 μl of 4% paraformaldehyde for 20 min and stained with 0.1% crystal violet in distilled water for 15 min at RT. The crystal violet dye was then dissolved using 100 μl absolute methanol per well and the optical density of the color is measured at 570 nm using Anthos Zenyth 200rt plate reader (Anthos Labtec Instruments, Heerhugowaard, Netherlands). The IC50 of the compound is that required to reduce the virus -induced cytopathic effect (CPE) by 50%, relative to the virus control.

in vitro = details: African green monkey

SMILES | IC50 [1] | CC50 at 24 h (in vitro)
Clc1nc2ccccc2cc1C=Nc1nnc(-c2cccnc2)s1 [Compound 12, 1-(2-chloroquinolin-3-yl)-N-(5-(pyridin-3-yl)-1,3,4-thiadiazol-2-yl)methanimine] | 120 mg/L (≈ 341 µM) | 512 mg/L (≈ 1450 µM)
N=c1oc2ccccc2cc1-c1nnc(-c2cccnc2)o1 [Compound 5, 3-(5-(pyridin-3-yl)-1,3,4-oxadiazol-2-yl)-2H-chromen-2-imine] | 55 mg/L (≈ 189 µM) | 312 mg/L (≈ 1070 µM)
C(=Nc1nnc(-c2cccnc2)s1)c1c[nH]c2ccccc12 [Compound 11, 1-(1H-indol-3-yl)-N-(5-(pyridin-3-yl)-1,3,4-thiadiazol-2-yl)methanimine] | 216 mg/L (≈ 707 µM) | 552 mg/L (≈ 1810 µM)

Source: article PMC10784557, “In silico and in vitro prediction of new synthesized N-heterocyclic compounds as anti-SARS-CoV-2” (Scientific Reports, 2024)
